# Test results reported in patent US7820714B2, “Siglec inhibitors” (priority 2001, dated 2010).
# Read-outs that look alike come from different tables or passages of the source.
# How the values were obtained:
# Siglec-1 (sialoadhesin) = Siglec-1 (sialoadhesin) (Mus musculus, UniProt Q62230); test: Hapten inhibition assay, Siglec-1 (sialoadhesin); assay type: binding; details: for Siglec-1 (sialoadhesin) rIP: quotient IC50 reference compound / IC50 compound; for Siglec-1 (sialoadhesin) percentage in parentheses below the IC50 bound: at the concentration of the IC50 bound, meaning not defined in the patent
# Siglec-1 (sialoadhesin), sequence (Q62230 20-136 limits assumed): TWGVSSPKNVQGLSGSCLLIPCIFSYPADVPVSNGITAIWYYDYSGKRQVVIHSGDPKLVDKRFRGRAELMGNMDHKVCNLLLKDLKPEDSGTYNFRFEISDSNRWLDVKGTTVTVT
# Experimental: (§1) Preferably, the inhibition can be determined by a Hapten inhibition test. […] After overnight incubation at 4° C. the unbound complexes are removed by washing the cells and the bound radioactivity is determined. From the data obtained in this way, the concentrations are found which lead to 50% inhibition of the binding (IC50 values) (5, 6). Specially preferred during the Hapten inhibition test was 10 μl of the complex solution with an activity of 10^3 Bq ^125I mixed with the same volume of a solution of the substance to be investigated (concentrated three times) and incubated at 4° C. for one hour. Then followed the addition of 10 μl of a suspension of target cells, preferably 0.25 to 0.5% of human erythrocytes and incubation overnight at 4° C. The unbound radioactivity is removed by washing the cells five times with 200 μl of washing buffer, preferably phosphate-buffered saline with 0.1% (W/V) bovine serum albumin, and the cell-bound activity is determined with a γ-counter. […] The inhibition is determined in that the value without inhibitor is set to 0% and that with the sialidase-treated cells is set equal to 100%.
# (§2) The IC50 value is the siglec inhibitor concentration which leads to 50% inhibition in the binding in the Hapten inhibition assay.
# Siglec-2 (human CD22) = target: T1, Siglec-2 (human CD22) (Homo sapiens, UniProt P20273); test: Hapten inhibition assay, Siglec-2 (human CD22); assay type: binding; details: for Siglec-2 (human CD22) rIP: quotient IC50 reference compound / IC50 compound
# T1 sequence (P20273 20-138 limits assumed): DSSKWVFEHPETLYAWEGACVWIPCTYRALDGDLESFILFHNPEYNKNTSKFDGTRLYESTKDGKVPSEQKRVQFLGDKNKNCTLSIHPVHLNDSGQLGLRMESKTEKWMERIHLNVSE
# Experimental: as §1, §2
# Siglec-2 (murine CD22) = target: T2, Siglec-2 (murine CD22) (Mus musculus, UniProt P35329); test: Hapten inhibition assay, Siglec-2 (murine CD22); assay type: binding; details: for Siglec-2 (murine CD22) rIP: quotient IC50 reference compound / IC50 compound
# T2 sequence (P35329 22-148 limits assumed): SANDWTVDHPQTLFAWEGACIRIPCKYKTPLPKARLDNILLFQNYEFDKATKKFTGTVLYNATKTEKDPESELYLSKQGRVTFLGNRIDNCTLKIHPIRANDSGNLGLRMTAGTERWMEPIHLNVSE
# Experimental: as §1, §2
# Siglec-4a (MAG) = target: T3, Siglec-4a (MAG) (UniProt P20917); test: Hapten inhibition assay, Siglec-4a (MAG); details: for Siglec-4a (MAG) rIP: quotient IC50 reference compound / IC50 compound; for IC50: read-out: Siglec-4a (MAG) IC50
# T3 sequence (P20917 1-627): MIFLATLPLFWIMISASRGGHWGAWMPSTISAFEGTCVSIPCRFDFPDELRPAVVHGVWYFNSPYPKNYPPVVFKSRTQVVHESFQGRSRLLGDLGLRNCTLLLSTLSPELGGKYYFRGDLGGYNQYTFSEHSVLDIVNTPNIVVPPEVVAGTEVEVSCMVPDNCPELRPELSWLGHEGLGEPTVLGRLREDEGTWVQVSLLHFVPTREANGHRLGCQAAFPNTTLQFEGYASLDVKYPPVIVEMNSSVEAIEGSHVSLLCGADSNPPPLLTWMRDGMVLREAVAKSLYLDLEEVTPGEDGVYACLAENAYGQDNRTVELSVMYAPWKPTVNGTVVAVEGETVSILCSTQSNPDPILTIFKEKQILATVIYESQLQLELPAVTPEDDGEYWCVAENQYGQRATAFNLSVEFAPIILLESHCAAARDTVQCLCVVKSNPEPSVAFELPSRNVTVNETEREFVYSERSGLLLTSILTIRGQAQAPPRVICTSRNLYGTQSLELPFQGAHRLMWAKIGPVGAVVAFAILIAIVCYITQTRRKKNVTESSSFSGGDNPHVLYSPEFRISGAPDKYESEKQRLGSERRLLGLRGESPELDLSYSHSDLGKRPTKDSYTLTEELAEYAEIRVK
# Experimental: Preferably, the inhibition can be determined by a Hapten inhibition test. […] After overnight incubation at 4° C. the unbound complexes are removed by washing the cells and the bound radioactivity is determined. […] Then followed the addition of 10 μl of a suspension of target cells, preferably 0.25 to 0.5% of human erythrocytes and incubation overnight at 4° C. The unbound radioactivity is removed by washing the cells five times with 200 μl of washing buffer, preferably phosphate-buffered saline with 0.1% (W/V) bovine serum albumin, and the cell-bound activity is determined with a γ-counter. […] The inhibition is determined in that the value without inhibitor is set to 0% and that with the sialidase-treated cells is set equal to 100%.
# [1] = at the concentration of the IC50 bound, meaning not defined in the patent
Compound,Siglec-1 (sialoadhesin) rIP (Siglec-1 (sialoadhesin)),IC50 (Siglec-1 (sialoadhesin); unit inferred),Siglec-2 (human CD22) rIP (Siglec-2 (human CD22)),IC50 (Siglec-2 (human CD22); unit inferred),Siglec-2 (murine CD22) rIP (Siglec-2 (murine CD22)),IC50 (Siglec-2 (murine CD22); unit inferred),Siglec-4a (MAG) rIP (Siglec-4a (MAG)),IC50 (Siglec-4a (MAG); unit inferred),Siglec-1 (sialoadhesin) percentage in parentheses below the IC50 bound (Siglec-1 (sialoadhesin)),IC50 (Siglec-1 (sialoadhesin); bounds given in mM),Siglec-2 (human CD22) percentage in parentheses below the IC50 bound (Siglec-2 (human CD22); [1]),IC50 (Siglec-2 (human CD22); bounds given in mM),Siglec-2 (murine CD22) percentage in parentheses below the IC50 bound (Siglec-2 (murine CD22); [1]),IC50 (Siglec-2 (murine CD22); bounds given in mM),Siglec-4a (MAG) percentage in parentheses below the IC50 bound (Siglec-4a (MAG); [1]),IC50 (Siglec-4a (MAG); bounds given in mM)
CS[C@]1(C(=O)O)C[C@H](O)[C@@H](NC(C)=O)[C@H]([C@H](O)[C@H](O)CO)O1 [Methylthio-α-Neu5Ac],0.8,0.6 mM,1.6,1.37 mM,1.1,4.25 mM,1.3,2.77 mM,–,–,–,–,–,–,–,–
COC1(C(=O)O)CC(O)C(O)C(C(O)C(O)CO)O1 (stereo not drawn) [Methyl-α-ketodesoxy-nonulsonic acid],<0.8,–,<<2,–,<1.5,–,<<0.5,–,(74%),> 1 mM,(117%),> 1 mM,(74%),> 2 mM,(225%),> 1 mM
COC1(C(=O)O)CC(O)C(NC(C)=O)C(C(O)C(O)CNC(=O)c2cccc3cc4ccccc4cc23)O1 (stereo not drawn) [Methyl-α-9-N-(anthracen-5-carbonyl)-amino-9-desoxy-Neu5Ac],0.5,0.75 mM,4.9,0.338 mM,7.4,0.647 mM,28,0.162 mM,–,–,–,–,–,–,–,–
"CO[C@]1(C(=O)O)C[C@H](O)[C@@H](NC(C)=O)[C@H]([C@H](O)[C@H](O)CNC(=O)c2cc(O)cc(O)c2)O1 [Methyl-α-9-N-(3,5-dihydroxybenzoyl)-amino-9-desoxy-Neu5Ac]",1.7,0.525 mM,19,0.073 mM,–,1.47 mM,166,0.028 mM,–,–,–,–,–,–,–,–
COC1(C(=O)O)CC(O)C(NC(C)=O)C(C(O)C(O)CNC(=O)c2c(F)c(F)c(F)c(F)c2F)O1 (stereo not drawn) [Methyl-α-9-N-(pentafluorbenzoyl)-amino-9-desoxy-Neu5Ac],0.3,7 mM,3.3,0.36 mM,2.0,2.5 mM,42,0.107 mM,–,–,–,–,–,–,–,–
"CO[C@]1(C(=O)O)C[C@H](O)[C@@H](NC(C)=O)[C@H]([C@H](O)[C@H](O)CO)O1 [Methyl-α-Neu5Ac, reference compound]",1.0,0.884 mM,1.0,1.39 mM,1.0,4.69 mM,1.0,4.72 mM,–,–,–,–,–,–,–,–
CO[C@]1(C(=O)O)C[C@H](O)[C@@H](NC(C)=O)[C@H]([C@H](O)[C@H](O)CNC(C)=O)O1 [Methyl-α-9-N-acetyl-amino-9-desoxy-Neu5Ac],0.2,3.82 mM,0.6,1.8 mM,2.7,1.75 mM,3.7,2.15 mM,–,–,–,–,–,–,–,–
CCOc1c(N[C@H]2[C@H]([C@H](O)[C@H](O)CO)O[C@@](OC)(C(=O)O)C[C@@H]2O)c(=O)c1=O [Methyl-α-5-N-(etoxycylcobutendion)-neuraminic acid],<<0.15,–,2.3,0.94 mM,1.5,3.37 mM,0.5,4.3 mM,(92%),> 5 mM,–,–,–,–,–,–
